The numbers were not newly measured in article PMC4939907 (Angewandte Chemie (International ed. in English), 2016), which cites them from elsewhere.

For the series, the system named is cancer (e.g., HeLa) and normal (e.g., HS-5) cells. The conditions noted are these: cancer (e.g., HeLa) versus normal (e.g., HS-5) cells; ref 4c, 4d, 10b.

In the case of Nap-D-Phe-D-Phe-D-pTyr, the “selectivity for cancer cells” value is on record as “selectively inhibits cancer cells”.
